Data: publication PMC3408863 (European journal of medicinal chemistry, 2012)
Counter-ions that a name gives are not always drawn.

Key:
human plasma = settings: comparators in clinical trials; cited from earlier work
Human FXIa = Human FXIa (Homo sapiens, UniProt P03951); test: Chromogenic substrate hydrolysis assay, FXIa; assay type: biochemical; settings: FXa over Human FXIa
Human FIXa = Human FIXa (Homo sapiens, UniProt P00740); test: Chromogenic substrate hydrolysis assay, FIXa; assay type: biochemical; settings: FXa over Human FIXa
Human FIIa = Human FIIa (Homo sapiens, UniProt P00734); test: Chromogenic substrate hydrolysis assay, FIIa; assay type: biochemical; settings: FXa over Human FIIa
Bovine Chymotrypsin = Bovine Chymotrypsin (Bos taurus, UniProt P00766); test: Chromogenic substrate hydrolysis assay, chymotrypsin; assay type: biochemical; settings: FXa over chymotrypsin
Bovine Trypsin = biological target: T1, Bovine Trypsin (Bos taurus, UniProt P00760); test: Chromogenic substrate hydrolysis assay, trypsin; assay type: biochemical
T1 sequence (P00760 24-246): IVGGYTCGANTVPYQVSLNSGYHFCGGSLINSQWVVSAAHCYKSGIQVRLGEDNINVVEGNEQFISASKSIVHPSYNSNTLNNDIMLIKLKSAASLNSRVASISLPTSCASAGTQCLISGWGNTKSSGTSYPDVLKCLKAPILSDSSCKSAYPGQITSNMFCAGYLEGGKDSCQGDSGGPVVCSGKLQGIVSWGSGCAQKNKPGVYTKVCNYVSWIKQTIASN

Human FVIIa = Human FVIIa (Homo sapiens, UniProt P08709); test: Chromogenic substrate hydrolysis assay, FVIIa; assay type: biochemical; settings: FXa over Human FVIIa
Human FXIIa = biological target: T2, Human FXIIa (Homo sapiens, UniProt P00748); test: Chromogenic substrate hydrolysis assay, FXIIa; assay type: biochemical; settings: FXa over Human FXIIa
T2 sequence (P00748 373-615 limits assumed): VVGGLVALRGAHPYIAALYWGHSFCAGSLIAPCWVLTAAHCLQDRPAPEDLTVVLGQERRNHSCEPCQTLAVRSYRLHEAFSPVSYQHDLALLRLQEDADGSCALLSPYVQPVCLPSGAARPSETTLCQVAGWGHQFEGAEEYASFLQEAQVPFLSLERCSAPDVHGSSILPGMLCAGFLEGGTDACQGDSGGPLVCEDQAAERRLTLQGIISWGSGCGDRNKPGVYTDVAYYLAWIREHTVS
T2 sequence (P00748 20-372 limits assumed): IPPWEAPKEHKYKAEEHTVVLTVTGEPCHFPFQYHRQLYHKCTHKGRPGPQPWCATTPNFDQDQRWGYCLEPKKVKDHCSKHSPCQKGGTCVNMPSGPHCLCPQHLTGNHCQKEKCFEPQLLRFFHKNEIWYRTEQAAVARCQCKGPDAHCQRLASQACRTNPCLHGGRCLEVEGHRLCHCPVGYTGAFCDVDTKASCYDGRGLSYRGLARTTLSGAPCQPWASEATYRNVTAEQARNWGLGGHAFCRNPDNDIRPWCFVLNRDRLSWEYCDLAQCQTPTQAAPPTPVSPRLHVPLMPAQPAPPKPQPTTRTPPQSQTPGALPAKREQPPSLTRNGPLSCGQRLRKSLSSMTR

human FXa = human FXa (Homo sapiens, UniProt P00742); test: Direct inhibition of FXa, chromogenic substrate hydrolysis assay; assay type: biochemical
Sequence of human FXa (P00742 235-488 limits assumed): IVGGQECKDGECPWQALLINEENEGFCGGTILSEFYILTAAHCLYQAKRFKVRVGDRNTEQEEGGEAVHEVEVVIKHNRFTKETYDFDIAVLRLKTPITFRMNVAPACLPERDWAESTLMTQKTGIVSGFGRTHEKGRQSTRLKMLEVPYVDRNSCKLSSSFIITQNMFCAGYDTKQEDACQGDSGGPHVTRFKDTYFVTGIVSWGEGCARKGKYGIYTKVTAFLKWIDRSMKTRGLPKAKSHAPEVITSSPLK
Sequence of human FXa (P00742 41-179 limits assumed): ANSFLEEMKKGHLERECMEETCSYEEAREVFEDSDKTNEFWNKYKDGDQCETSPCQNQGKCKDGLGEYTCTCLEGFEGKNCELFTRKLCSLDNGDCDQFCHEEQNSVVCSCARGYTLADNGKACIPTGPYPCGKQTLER

Sequence of Human FXIa (P03951 388-625 limits assumed): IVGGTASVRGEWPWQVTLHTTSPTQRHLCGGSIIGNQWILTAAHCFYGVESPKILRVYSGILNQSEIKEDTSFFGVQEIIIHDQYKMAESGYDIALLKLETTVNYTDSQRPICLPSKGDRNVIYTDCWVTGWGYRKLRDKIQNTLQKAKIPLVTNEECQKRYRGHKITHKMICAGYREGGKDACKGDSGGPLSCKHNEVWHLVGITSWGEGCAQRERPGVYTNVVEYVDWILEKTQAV
Sequence of Human FXIa (P03951 19-387 limits assumed): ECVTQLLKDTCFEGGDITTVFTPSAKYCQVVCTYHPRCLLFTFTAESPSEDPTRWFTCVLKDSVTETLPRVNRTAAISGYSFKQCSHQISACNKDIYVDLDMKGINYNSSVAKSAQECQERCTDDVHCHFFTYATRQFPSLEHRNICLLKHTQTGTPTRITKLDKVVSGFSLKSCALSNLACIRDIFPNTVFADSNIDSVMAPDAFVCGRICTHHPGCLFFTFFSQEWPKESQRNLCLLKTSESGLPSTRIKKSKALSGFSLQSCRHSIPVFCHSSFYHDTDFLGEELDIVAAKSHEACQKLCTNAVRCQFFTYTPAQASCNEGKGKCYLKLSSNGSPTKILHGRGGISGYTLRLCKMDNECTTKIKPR
Sequence of Human FIXa (P00740 227-461 limits assumed): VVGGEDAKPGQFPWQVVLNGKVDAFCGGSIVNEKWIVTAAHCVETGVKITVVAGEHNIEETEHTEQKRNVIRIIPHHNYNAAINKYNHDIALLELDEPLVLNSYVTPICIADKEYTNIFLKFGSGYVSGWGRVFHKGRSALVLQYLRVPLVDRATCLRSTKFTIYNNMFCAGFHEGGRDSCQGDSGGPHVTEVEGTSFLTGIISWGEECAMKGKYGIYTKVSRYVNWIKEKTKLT
Sequence of Human FIXa (P00740 47-191 limits assumed): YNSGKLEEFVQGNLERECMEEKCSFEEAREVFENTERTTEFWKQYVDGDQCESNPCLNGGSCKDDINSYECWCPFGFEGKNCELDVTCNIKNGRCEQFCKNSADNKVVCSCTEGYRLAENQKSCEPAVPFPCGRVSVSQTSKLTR
Sequence of Human FVIIa (P08709 213-466 limits assumed): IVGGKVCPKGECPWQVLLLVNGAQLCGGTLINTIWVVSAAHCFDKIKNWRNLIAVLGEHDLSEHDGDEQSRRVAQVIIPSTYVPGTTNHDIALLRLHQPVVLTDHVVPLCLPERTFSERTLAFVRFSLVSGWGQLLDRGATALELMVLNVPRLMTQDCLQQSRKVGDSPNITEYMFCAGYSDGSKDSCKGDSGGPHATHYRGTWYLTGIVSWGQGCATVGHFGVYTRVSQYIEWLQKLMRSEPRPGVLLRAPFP
Sequence of Human FVIIa (P08709 61-212 limits assumed): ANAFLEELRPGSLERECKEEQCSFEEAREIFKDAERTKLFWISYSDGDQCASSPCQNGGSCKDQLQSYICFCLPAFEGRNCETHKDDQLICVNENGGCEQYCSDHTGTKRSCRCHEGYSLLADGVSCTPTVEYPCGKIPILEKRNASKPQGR
Sequence of Human FVIIa (P13726 33-295 partner): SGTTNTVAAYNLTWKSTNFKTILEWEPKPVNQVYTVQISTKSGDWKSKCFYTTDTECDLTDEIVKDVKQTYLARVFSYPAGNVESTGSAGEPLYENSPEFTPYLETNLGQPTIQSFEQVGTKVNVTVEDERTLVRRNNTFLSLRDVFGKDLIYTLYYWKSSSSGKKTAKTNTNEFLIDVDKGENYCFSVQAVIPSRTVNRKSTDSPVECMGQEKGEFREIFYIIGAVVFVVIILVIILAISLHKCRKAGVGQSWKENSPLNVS

| Selectivity Index (Human FXIa) | Selectivity Index (Human FIXa) | Selectivity Index (Human FIIa) | selectivity against chymotrypsin (Bovine Chymotrypsin) | IC50 (Bovine Trypsin) | Selectivity Index (Bovine Trypsin; FXa over Bovine Trypsin) | selectivity against trypsin (Bovine Trypsin; FXa over trypsin) | Selectivity Index (Human FVIIa) | Selectivity Index (Human FXIIa) | Ki (human FXa) | fold decrease in IC50 relative to inhibitor 13 (human FXa; FXa inhibition, relative to 13 (IC50 = 16.4 μM)) | selectivity for FXa inhibition over other coagulation enzymes (human FXa; over FIIa, FVIIa, FIXa, FXIa, and FXIIa) | SMILES | PT, concentration doubling the clotting time (human plasma) |
| --- | --- | --- | --- | --- | --- | --- | --- | --- | --- | --- | --- | --- | --- |
| – | – | – | – | – | – | – | – | – | – | – | – | CN(C)Cc1nccn1-c1ccc(NC(=O)c2cc(C(F)(F)F)nn2-c2ccc3onc(N)c3c2)c(F)c1 [razaxaban, 1-(3′-aminobenzisoxazol-5′-yl)-3-trifluoromethyl-N-[2-fluoro-4-[(2′-dimethylamino-methyl)imidazol-1-yl]phenyl]-1H-pyrazole-5-carboxyamide hydrochloride] | 3.8 µM |
| >1852 | >3703 | >1852 | ≥ 279 fold | > 100000 nM | >370 | at least 370 fold | >3703 | >1852 | 135 nM | ~ 60 fold | at least 1852 fold | O=C(Nc1ccc(N2CCOCC2=O)cc1)[C@H]1Cc2ccccc2CN1C(=O)Cc1ccc(Cl)cc1 [Inhibitor 47, (R)-2-(2-(4-chlorophenyl)acetyl)-N-(4-(3-oxomorpholino)phenyl)-1,2,3,4-tetrahydro-isoquinoline-3-carboxamide] | – |
